# Assay: The drug is tested on Bifidobacterium breve strain: DSM20213 for biotransformation. The drug concentrations were measured before and after a 12-h incubation by liquid-chromatography-coupled mass spectrometry (LC–MS)
# Details: 2 µM
row,Compound,Bacterial Biotransformation
1,COc1cc(C(=O)NCc2ccc(OCCN(C)C)cc2)cc(OC)c1OC [TRIMETHOBENZAMIDE],Compound NOT metabolized
2,CCCCCNC(=N)N/N=C/c1c[nH]c2ccc(OC)cc12.O=C(O)/C=C\C(=O)O [TEGASEROD MALEATE],Compound NOT metabolized
3,COc1ccc(CCN(C)CCCC(C#N)(c2ccc(OC)c(OC)c2)C(C)C)cc1OC (centres undefined),Compound NOT metabolized

# Assay: The drug is tested on Bacteroides caccae strain: ATCC43185 for biotransformation. The drug concentrations were measured before and after a 12-h incubation by liquid-chromatography-coupled mass spectrometry (LC–MS)
# Details: 2 µM
row,Compound,Bacterial Biotransformation
1,COc1cc(C(=O)NCc2ccc(OCCN(C)C)cc2)cc(OC)c1OC [TRIMETHOBENZAMIDE],Compound NOT metabolized
2,CCCCCNC(=N)N/N=C/c1c[nH]c2ccc(OC)cc12.O=C(O)/C=C\C(=O)O [TEGASEROD MALEATE],Compound NOT metabolized
3,COc1ccc(CCN(C)CCCC(C#N)(c2ccc(OC)c(OC)c2)C(C)C)cc1OC (centres undefined),Compound NOT metabolized

# Assay: The drug is tested on Bacteroides cellulosilyticus strain: DSM14838 for biotransformation. The drug concentrations were measured before and after a 12-h incubation by liquid-chromatography-coupled mass spectrometry (LC–MS)
# Details: 2 µM
row,Compound,Bacterial Biotransformation
1,COc1cc(C(=O)NCc2ccc(OCCN(C)C)cc2)cc(OC)c1OC [TRIMETHOBENZAMIDE],Compound NOT metabolized
2,CCCCCNC(=N)N/N=C/c1c[nH]c2ccc(OC)cc12.O=C(O)/C=C\C(=O)O [TEGASEROD MALEATE],Compound NOT metabolized
3,COc1ccc(CCN(C)CCCC(C#N)(c2ccc(OC)c(OC)c2)C(C)C)cc1OC (centres undefined),Compound NOT metabolized

# Assay: The drug is tested on Bacteroides finegoldii strain: DSM17565 for biotransformation. The drug concentrations were measured before and after a 12-h incubation by liquid-chromatography-coupled mass spectrometry (LC–MS)
# Details: 2 µM
row,Compound,Bacterial Biotransformation
1,COc1cc(C(=O)NCc2ccc(OCCN(C)C)cc2)cc(OC)c1OC [TRIMETHOBENZAMIDE],Compound NOT metabolized
2,CCCCCNC(=N)N/N=C/c1c[nH]c2ccc(OC)cc12.O=C(O)/C=C\C(=O)O [TEGASEROD MALEATE],Compound NOT metabolized
3,COc1ccc(CCN(C)CCCC(C#N)(c2ccc(OC)c(OC)c2)C(C)C)cc1OC (centres undefined),Compound NOT metabolized

# Assay: The drug is tested on Bacteroides fragilis strain: ATCC43859 for biotransformation. The drug concentrations were measured before and after a 12-h incubation by liquid-chromatography-coupled mass spectrometry (LC–MS)
# Details: 2 µM
row,Compound,Bacterial Biotransformation
1,COc1cc(C(=O)NCc2ccc(OCCN(C)C)cc2)cc(OC)c1OC [TRIMETHOBENZAMIDE],Compound NOT metabolized
2,CCCCCNC(=N)N/N=C/c1c[nH]c2ccc(OC)cc12.O=C(O)/C=C\C(=O)O [TEGASEROD MALEATE],Compound NOT metabolized
3,COc1ccc(CCN(C)CCCC(C#N)(c2ccc(OC)c(OC)c2)C(C)C)cc1OC (centres undefined),Compound NOT metabolized

# Assay: The drug is tested on Bacteroides ovatus strain: ATCC8483 for biotransformation. The drug concentrations were measured before and after a 12-h incubation by liquid-chromatography-coupled mass spectrometry (LC–MS)
# Details: 2 µM
row,Compound,Bacterial Biotransformation
1,COc1cc(C(=O)NCc2ccc(OCCN(C)C)cc2)cc(OC)c1OC [TRIMETHOBENZAMIDE],Compound NOT metabolized
2,CCCCCNC(=N)N/N=C/c1c[nH]c2ccc(OC)cc12.O=C(O)/C=C\C(=O)O [TEGASEROD MALEATE],Compound NOT metabolized
3,COc1ccc(CCN(C)CCCC(C#N)(c2ccc(OC)c(OC)c2)C(C)C)cc1OC (centres undefined),Compound metabolized

# Assay: The drug is tested on Blautia luti strain: DSM14534 for biotransformation. The drug concentrations were measured before and after a 12-h incubation by liquid-chromatography-coupled mass spectrometry (LC–MS)
# Format: ADME
# Parameters: dose 2 uM, timepoint 0 vs 12 hours
# Details: 2 µM
row,Compound,Bacterial Biotransformation
1,COc1cc(C(=O)NCc2ccc(OCCN(C)C)cc2)cc(OC)c1OC [TRIMETHOBENZAMIDE],Compound NOT metabolized
2,CCCCCNC(=N)N/N=C/c1c[nH]c2ccc(OC)cc12.O=C(O)/C=C\C(=O)O [TEGASEROD MALEATE],Compound NOT metabolized
3,COc1ccc(CCN(C)CCCC(C#N)(c2ccc(OC)c(OC)c2)C(C)C)cc1OC (centres undefined),Compound NOT metabolized

# Assay: The drug is tested on Clostridium sp. strain: fecal isolate for biotransformation. The drug concentrations were measured before and after a 12-h incubation by liquid-chromatography-coupled mass spectrometry (LC–MS)
# Details: 2 µM
row,Compound,Bacterial Biotransformation
1,COc1cc(C(=O)NCc2ccc(OCCN(C)C)cc2)cc(OC)c1OC [TRIMETHOBENZAMIDE],Compound NOT metabolized
2,CCCCCNC(=N)N/N=C/c1c[nH]c2ccc(OC)cc12.O=C(O)/C=C\C(=O)O [TEGASEROD MALEATE],Compound NOT metabolized

# Assay: The drug is tested on Clostridium scindens strain: ATCC35704 for biotransformation. The drug concentrations were measured before and after a 12-h incubation by liquid-chromatography-coupled mass spectrometry (LC–MS)
# Details: 2 µM
row,Compound,Bacterial Biotransformation
1,CCCCCNC(=N)N/N=C/c1c[nH]c2ccc(OC)cc12.O=C(O)/C=C\C(=O)O [TEGASEROD MALEATE],Compound NOT metabolized

# Assay: The drug is tested on Clostridium symbiosum strain: ATCC14940 for biotransformation. The drug concentrations were measured before and after a 12-h incubation by liquid-chromatography-coupled mass spectrometry (LC–MS)
# Details: 2 µM
row,Compound,Bacterial Biotransformation
1,COc1cc(C(=O)NCc2ccc(OCCN(C)C)cc2)cc(OC)c1OC [TRIMETHOBENZAMIDE],Compound NOT metabolized
2,CCCCCNC(=N)N/N=C/c1c[nH]c2ccc(OC)cc12.O=C(O)/C=C\C(=O)O [TEGASEROD MALEATE],Compound NOT metabolized

# Assay: The drug is tested on Eubacterium hallii strain: DSM3353 for biotransformation. The drug concentrations were measured before and after a 12-h incubation by liquid-chromatography-coupled mass spectrometry (LC–MS)
# Details: anaerobutyricum hallii, 2 µM
row,Compound,Bacterial Biotransformation
1,COc1cc(C(=O)NCc2ccc(OCCN(C)C)cc2)cc(OC)c1OC [TRIMETHOBENZAMIDE],Compound NOT metabolized
2,CCCCCNC(=N)N/N=C/c1c[nH]c2ccc(OC)cc12.O=C(O)/C=C\C(=O)O [TEGASEROD MALEATE],Compound NOT metabolized
3,COc1ccc(CCN(C)CCCC(C#N)(c2ccc(OC)c(OC)c2)C(C)C)cc1OC (centres undefined),Compound metabolized

# Assay: The drug is tested on Eubacterium rectale strain: ATCC33656 for biotransformation. The drug concentrations were measured before and after a 12-h incubation by liquid-chromatography-coupled mass spectrometry (LC–MS)
# Details: agathobacter rectalis, 2 µM
row,Compound,Bacterial Biotransformation
1,CCCCCNC(=N)N/N=C/c1c[nH]c2ccc(OC)cc12.O=C(O)/C=C\C(=O)O [TEGASEROD MALEATE],Compound NOT metabolized

# Assay: The drug is tested on Subdoligranulum variabile strain: DSM15176 for biotransformation. The drug concentrations were measured before and after a 12-h incubation by liquid-chromatography-coupled mass spectrometry (LC–MS)
# Details: 2 µM
row,Compound,Bacterial Biotransformation
1,COc1cc(C(=O)NCc2ccc(OCCN(C)C)cc2)cc(OC)c1OC [TRIMETHOBENZAMIDE],Compound NOT metabolized
2,CCCCCNC(=N)N/N=C/c1c[nH]c2ccc(OC)cc12.O=C(O)/C=C\C(=O)O [TEGASEROD MALEATE],Compound NOT metabolized
3,COc1ccc(CCN(C)CCCC(C#N)(c2ccc(OC)c(OC)c2)C(C)C)cc1OC (centres undefined),Compound NOT metabolized

# Assay: The drug is tested on Escherichia coli strain: BW25113 for biotransformation. The drug concentrations were measured before and after a 12-h incubation by liquid-chromatography-coupled mass spectrometry (LC–MS)
# Details: 2 µM
row,Compound,Bacterial Biotransformation
1,CCCCCNC(=N)N/N=C/c1c[nH]c2ccc(OC)cc12.O=C(O)/C=C\C(=O)O [TEGASEROD MALEATE],Compound NOT metabolized

# Details: bacteroides fragilis, 12 h, 2 µM
row,Compound,Bacterial Biotransformation
1,COc1cc(C(=O)NCc2ccc(OCCN(C)C)cc2)cc(OC)c1OC [TRIMETHOBENZAMIDE],Compound NOT metabolized
2,CCCCCNC(=N)N/N=C/c1c[nH]c2ccc(OC)cc12.O=C(O)/C=C\C(=O)O [TEGASEROD MALEATE],Compound NOT metabolized
3,COc1ccc(CCN(C)CCCC(C#N)(c2ccc(OC)c(OC)c2)C(C)C)cc1OC (centres undefined),Compound NOT metabolized

# Details: bacteroides fragilis, 12 h, 2 µM
# Remark: another data set of the same source
row,Compound,Bacterial Biotransformation
1,COc1cc(C(=O)NCc2ccc(OCCN(C)C)cc2)cc(OC)c1OC [TRIMETHOBENZAMIDE],Compound NOT metabolized
2,CCCCCNC(=N)N/N=C/c1c[nH]c2ccc(OC)cc12.O=C(O)/C=C\C(=O)O [TEGASEROD MALEATE],Compound NOT metabolized
3,COc1ccc(CCN(C)CCCC(C#N)(c2ccc(OC)c(OC)c2)C(C)C)cc1OC (centres undefined),Compound NOT metabolized

# Details: bacteroides thetaiotaomicron, 12 h, 2 µM
row,Compound,Bacterial Biotransformation
1,COc1cc(C(=O)NCc2ccc(OCCN(C)C)cc2)cc(OC)c1OC [TRIMETHOBENZAMIDE],Compound NOT metabolized
2,CCCCCNC(=N)N/N=C/c1c[nH]c2ccc(OC)cc12.O=C(O)/C=C\C(=O)O [TEGASEROD MALEATE],Compound NOT metabolized
3,COc1ccc(CCN(C)CCCC(C#N)(c2ccc(OC)c(OC)c2)C(C)C)cc1OC (centres undefined),Compound metabolized

# Details: bacteroides thetaiotaomicron, 12 h, 2 µM
# Remark: another data set of the same source
row,Compound,Bacterial Biotransformation
1,COc1cc(C(=O)NCc2ccc(OCCN(C)C)cc2)cc(OC)c1OC [TRIMETHOBENZAMIDE],Compound NOT metabolized
2,CCCCCNC(=N)N/N=C/c1c[nH]c2ccc(OC)cc12.O=C(O)/C=C\C(=O)O [TEGASEROD MALEATE],Compound NOT metabolized
3,COc1ccc(CCN(C)CCCC(C#N)(c2ccc(OC)c(OC)c2)C(C)C)cc1OC (centres undefined),Compound metabolized

# Details: parabacteroides distasonis, 12 h, 2 µM
row,Compound,Bacterial Biotransformation
1,COc1cc(C(=O)NCc2ccc(OCCN(C)C)cc2)cc(OC)c1OC [TRIMETHOBENZAMIDE],Compound NOT metabolized
2,CCCCCNC(=N)N/N=C/c1c[nH]c2ccc(OC)cc12.O=C(O)/C=C\C(=O)O [TEGASEROD MALEATE],Compound NOT metabolized
3,COc1ccc(CCN(C)CCCC(C#N)(c2ccc(OC)c(OC)c2)C(C)C)cc1OC (centres undefined),Compound metabolized

# Reference: ChEMBL document CHEMBL5303573, “Mapping human microbiome drug metabolism by gut bacteria and their genes” (Nature, 2019)
